These results are taken from EPA's aquatic toxicity sets.

Data set [1] concerns Daphnia magna. In words: 48 h LC50 (-log10 mol/L); higher = more toxic.
The test system of data set [2] is Tetrahymena pyriformis. Put plainly: 48 h IGC50 (-log10 mol/L); higher = more toxic.
The test system of data set [3] is Pimephales promelas. Put plainly: 96 h LC50 (-log10 mol/L); higher = more toxic.

For `Cc1c(OCC(F)(F)F)ccnc1CS(=O)c1nc2ccccc2[nH]1` (configuration not stated), the “48 h LC50 (-log10 mol/L)” value in data set [1] was 4.22.
As for `CC1=CC(=O)C(C)=C(C)C1=O`, the “48 h LC50 (-log10 mol/L)” value in data set [1] was 5.
`N/C(=N\N=C\c1ccc(Cl)cc1)N/N=C/c1ccc(Cl)cc1`: the “48 h LC50 (-log10 mol/L)” value in data set [1] stood at 6.65.
Regarding `O=S(=O)(c1ccc(Cl)cc1)c1cc(Cl)c(Cl)cc1Cl`, the “48 h LC50 (-log10 mol/L)” value in data set [1] was 4.71.
Still for that read-out and setting: then `COc1ccccc1OCCNCC(O)COc1cccc2[nH]c3ccccc3c12` (configuration not stated), with 5.13; and `Nc1cccc(Cl)c1`, with 6.11.
Same read-out and setting: then `c1ccc(NNc2ccccc2)cc1`, with 4.65; and `CC(C)CCCCCCCCCCNCCCCCCCCCCC(C)C`, with 6.54.
Still for that read-out and setting: then `O=S1c2ccccc2-c2ccccc21`, with 4; and `Cc1cc(Cl)cc(Cl)c1O`, with 5.63; and `Cc1ccc(Cl)cc1Cl`, with 5.42.
With `CN=C=S`, in data set [1], the “48 h LC50 (-log10 mol/L)” value came out at 5.42.
The same measure, in the same setting: then `c1ccc2c(c1)cc1ccc3cccc4ccc2c1c34`, with 6; and `CCCCCCCCCCC[C@@H](C[C@@H]1OC(=O)[C@H]1CCCCCC)OC(=O)[C@H](CC(C)C)NC=O`, with 4.85.
The same measure, in the same setting: under `BrC=C(Br)Br` stands 4.33; under `O=S1(=O)OCC2C(CO1)C1(Cl)C(Cl)=C(Cl)C2(Cl)C1(Cl)Cl` (configuration not stated), 5.3.
Same read-out and setting: then `COC(=O)Nc1cccc(OC(=O)Nc2cccc(C)c2)c1`, with 4.65; and `Clc1ccc(-c2ccc(Cl)c(Cl)c2Cl)c(Cl)c1Cl`, with 8.78.
Take `NC(=O)N/N=C/c1ccc([N+](=O)[O-])o1`: the “48 h LC50 (-log10 mol/L)” value in data set [1] turned out to be 3.84.
The same measure, in the same setting: then `CC(OC(=O)c1cc(Oc2ccc(C(F)(F)F)cc2Cl)ccc1[N+](=O)[O-])C(=O)O` (configuration not stated), with 4.5; and `CCCOC(=O)NCCCN(C)C`, with 3.25.
`Cc1ccc2sccc2c1`: the “48 h LC50 (-log10 mol/L)” value in data set [1] stood at 4.03.
Still for that read-out and setting: then `NNC(=O)c1ccncc1`, with 3.77.
The same measure, in the same setting: then `CN/C(=C\[N+](=O)[O-])NCCSCc1ccc(CN(C)C)o1`, with 2.69; and `CN(C)C(=N)N=C(N)N`, with 1.98.
Same read-out and setting: under `Cn1cc(-c2ccccc2)c(=O)c(-c2cccc(C(F)(F)F)c2)c1` stands 4.9; under `S=P(N1CC1)(N1CC1)N1CC1`, 2.54; under `CC[C@H]1OC(=O)[C@H](C)[C@@H](O[C@H]2C[C@@](C)(OC)[C@@H](O)[C@H](C)O2)[C@H](C)[C@@H](O[C@@H]2O[C@H](C)C[C@H](N(C)C)[C@H]2O)[C@](C)(OC)C[C@@H](C)C(=O)[C@H](C)[C@@H](O)[C@]1(C)O`, 4.6.
As to `C=CCc1ccccc1O`, in data set [2], the “48 h IGC50 (-log10 mol/L)” value was 3.33. For the same molecule, the “96 h LC50 (-log10 mol/L)” value in data set [3] stood at 3.98.
With `C#CC(C)O` (configuration not stated), in data set [2], the “48 h IGC50 (-log10 mol/L)” value was 2.6. For the same molecule, the “96 h LC50 (-log10 mol/L)” value in data set [3] is 3.78.
As to `CCCCCc1ccccc1`, in data set [2], the “48 h IGC50 (-log10 mol/L)” value stood at 4.79. Also, the “96 h LC50 (-log10 mol/L)” value in data set [3] is 4.94.
The corresponding values for `Brc1ccc(Br)cc1` are 3.68 and 5.28.
On to `CCCCC(C)=O`, for which the “48 h IGC50 (-log10 mol/L)” value in data set [2] worked out at 1.66. Besides, the “96 h LC50 (-log10 mol/L)” value in data set [3] stood at 2.37.
The corresponding values for `CCCCC(CC)CO` (configuration not stated) are 3.17 and 3.66.
The corresponding values for `Clc1nc(Cl)c(Cl)c(Cl)c1Cl` are 4.71 and 5.73.
On to `c1ccc2cnncc2c1`, for which, in data set [2], the “48 h IGC50 (-log10 mol/L)” value is 2.66. In addition, in data set [3], the “96 h LC50 (-log10 mol/L)” value turned out to be 3.11.
The corresponding values for `CCCCCCBr` are 3.94 and 4.68.
The corresponding values for `Cc1ccc(C)c(O)c1C` are 3.28 and 4.22.
The corresponding values for `c1ccc2occc2c1` are 2.89 and 3.93.
Turning to `C=CCC(O)C=C` (configuration not stated), in data set [2], the “48 h IGC50 (-log10 mol/L)” value is 3.25. For the same molecule, in data set [3], the “96 h LC50 (-log10 mol/L)” value amounted to 3.41.
The corresponding values for `CCOC(=O)c1ccc(N)cc1` are 3.7 and 3.67.
For the molecule `Cc1nc(C)c(C)o1`, the “48 h IGC50 (-log10 mol/L)” value in data set [2] came to 1.99. The “96 h LC50 (-log10 mol/L)” value in data set [3] was found to be 2.4.
On to `OCC(Br)CBr` (configuration not stated), for which the “48 h IGC50 (-log10 mol/L)” value in data set [2] was found to be 2.51. Besides, in data set [3], the “96 h LC50 (-log10 mol/L)” value is 3.49.
For `Oc1c(Br)cc(Br)cc1Br`, the “48 h IGC50 (-log10 mol/L)” value in data set [2] amounted to 4.91. Also, the “96 h LC50 (-log10 mol/L)” value in data set [3] came out at 4.71.
`Cc1cc(Cl)nc(N)n1`: in data set [2], the “48 h IGC50 (-log10 mol/L)” value worked out at 2.53. Besides, the “96 h LC50 (-log10 mol/L)” value in data set [3] stood at 3.01.
The corresponding values for `C=Cn1c2ccccc2c2ccccc21` are 5.24 and 7.81.
As to `Nc1cccc(OCc2ccccc2)c1`, the “48 h IGC50 (-log10 mol/L)” value in data set [2] stood at 3.88. For the same molecule, the “96 h LC50 (-log10 mol/L)” value in data set [3] is 4.34.
The corresponding values for `NC(=O)c1ccccc1` are 2.09 and 2.26.
The corresponding values for `Oc1cccnc1Cl` are 2.99 and 2.32.
On to `NC(=O)c1ccc(Cl)cc1Cl`, for which the “48 h IGC50 (-log10 mol/L)” value in data set [2] was determined as 2.64. For the same molecule, the “96 h LC50 (-log10 mol/L)” value in data set [3] was 3.3.
